In brackets after ≈: the same amount, converted by molar mass. Like-named read-outs stand apart in the source and are kept apart here.
Columns and labels:
[1] = Cell number (propidium iodide); type: cell-based, rat; conditions: rat
Procedure: (§1) One test compound (Compound A) was received as dry powder and evaluated for potential cytotoxicity in a battery of in vitro assays. The compound was tested using both rat cardiomyocytes (CM) from rat neonates and a rat hepatoma (H4IIE) cell line. […] The cell supernatant or the cells themselves were harvested for biochemical analysis. General cytotoxicity was evaluated by monitoring membrane integrity, mitochondrial function, cell proliferation, oxidative stress, and apoptosis. In addition, interaction with P-glycoprotein (PgP) on H4IIE cells and solubility of the test compound were also assessed. The means of each exposure group (n=3-7) were calculated for each assay performed.
(§2) Experimental Protocol: The test compound was provided and stored at 4° C. until needed. Dosing solutions were prepared in complete culture medium. The rat hepatoma (H4IIE) cell line was used as the test system.
Cell Proliferation: Cell proliferation in each well was measured with propidium iodide (PI). This specific nucleic acid binding dye fluoresces when intercalated within the nucleic acids. The 15 nm shift enhances PI fluorescence approximately 20 times while the excitation maxima are shifted 30-40 nm. During method development experiments, it was determined that Triton-X-100 was the best solution to permeabilize the H4IIE cells thereby allowing the PI access to intracellular RNA and DNA. Fluorescence was measured using a Packard Fusion plate reader or equivalent reader at 540 nm excitation and 610 nm emission.
Cell Proliferation: After incubation, the test compound was removed and Triton X-100 solution containing propidium iodide is added. The plate was incubated and read on a fluorescent plate reader. Data was collected as relative fluorescent units (RFU). The blank was subtracted from the final well RFU. It represents the average of the first and last columns which contain no cells on that particular plate. The controls are untreated cells allowed to grow on the same plate. The compounds are represented by several separate RFU data points for each of the tested concentrations. The percent change relative to controls was calculated by dividing the average RFU by the control cell RFU and multiplying by 100.

MTT reduction = type: cell-based, rat
Procedure: as §1
Tetrazolium Dye Reduction: 3-[4,5-dimethylthiazol-2-yl]

[2] = Intracellular total glutathione (GSH); type: cell-based, rat; conditions: rat
Procedure: as §1

[3] = Intracellular total glutathione (GSH); type: cell-based, rat; conditions: rat; remark: listed apart in the source
Procedure: as §1, §2

rat cardiomyocytes = assay: Membrane lipid peroxidation (8-isoprostane ELISA); type: cell-based
Procedure: (§3) One test compound (Compound A) was received as dry powder and evaluated for potential cytotoxicity in a battery of in vitro assays. The compound was tested using both rat cardiomyocytes (CM) from rat neonates and a rat hepatoma (H4IIE) cell line. […] Camptothecin and rotenone were included as positive control compounds. The cell supernatant or the cells themselves were harvested for biochemical analysis. General cytotoxicity was evaluated by monitoring membrane integrity, mitochondrial function, cell proliferation, oxidative stress, and apoptosis. In addition, interaction with P-glycoprotein (PgP) on H4IIE cells and solubility of the test compound were also assessed. The means of each exposure group (n=3-7) were calculated for each assay performed. Intra assay variation well-to-well was typically less than 10% with plate to plate variation typically less than 20%.

H4IIE cells = assay: Membrane lipid peroxidation (8-isoprostane ELISA); type: cell-based, rat
Procedure: as §3, §2

[4] = Solubility in culture medium (nephelometry); type: physicochemical
Procedure: Solubility: The test compounds were prepared in DMSO and the appropriate amounts were then added to complete medium containing 10% bovine serum […] at 37° C. The samples were evaluated using a light scattering technique and a Nephaloskan instrument.
Solubility Assay: The test compounds were prepared in DMSO and the appropriate amounts were then added to complete medium containing 10% bovine serum at 37° C. The samples were evaluated using a light scattering technique and a Nephaloskan instrument.

P-glycoprotein (PgP) = P-glycoprotein (PgP) binding: MTT with and without cyclosporin A; type: cell-based, rat; conditions: H4IIE 24 HR; for % Control (Compound + CSA) / % Control (Compound): MTT, 50 μM; for % Control (Compound + CSA): with cyclosporin A; for % Control (Compound): without CSA; for % Difference: 1-20% low, 20-50% moderate, 50-100% high PgP interaction
Procedure: Several antiviral drugs are substrates for P-glycoprotein transporter (PgP).
P-glycoprotein (PgP) transport proteins are expressed in the bile canalicular membrane of normal liver. However, in neoplastic cells it is not uncommon to have expression of this transporter system in the plasma membrane. […] The existence of these transporters was evaluated with the Calcein-AM assay and with known substrates of PgP.

[5] = MemTox membrane leakage (AK / α-GST); type: cell-based, rat; conditions: rat
Procedure: as §1, §2
Membrane Leakage (α-Glutathione S-transferase and/or Adenylate Kinase): The presence of Adenylate Kinase (AK) or α-Glutathione S-transferase (α-GST), both enzyme leakage markers, was measured in the culture medium using an activity assay for Adenylate Kinase and/or an ELISA assay for α-GST. At the end of the exposure period, the medium covering the cells in each well was removed and placed into new 96-well plates with appropriate labeling. […] Luminescence (AK) values were measured with a Packard Fusion or equivalent plate reader, and absorbance (α-GST) values were measured with a Packard SpectraCount™ or equivalent reader at 450 nm and reference absorbance at 650 nm.
Membrane Leakage (α-Glutathione S-transferase and/or Adenylate Kinase): Leakage of Adenylate Kinase or α-GST from the cell into the culture medium was determined by collecting the culture medium at the end of the exposure period. Thus, the values measured represent total enzyme leakage lost over the exposure period. The control for 100% dead or maximum enzyme release was based on cells treated with 1 mM digitonin at the time of dosing. Percent dead cells relative to digitonin treated cells was determined and then subtracted from 100% to yield the percent live cells.

[6] = 37 °C, plasma or biological fluid, kinetic from dmso stock, dosing medium with 20% serum, 37° C., CM 24 HR, read-out: Highest Soluble Concentration Tested
[7] = 37 °C, plasma or biological fluid, kinetic from dmso stock, dosing medium with 20% serum, 37° C., H4IIE 24 HR, read-out: Highest Soluble Concentration Tested
[8] = H4IIE rat hepatoma cells, H4IIE, 24 HR exposure, read-out: Cell Number TC50
[9] = H4IIE rat hepatoma cells, H4IIE, 24 HR exposure, read-out: MemTox TC50
[10] = neonatal rat cardiomyocytes, rat cardiomyocytes (CM), 24 HR exposure, read-out: MTT TC50
[11] = neonatal rat cardiomyocytes, CM, 24 HR, read-out: Total GSH TC50
[12] = H4IIE rat hepatoma cells, H4IIE, 24 HR, read-out: Total GSH TC50
[13] = dosing medium with 20% serum, 37° C., CM 24 HR, read-out: Highest Soluble Concentration Tested
[14] = dosing medium with 20% serum, 37° C., H4IIE 24 HR, read-out: Highest Soluble Concentration Tested

solubility [4, 13] [µM]	solubility [4, 14] [µM]	SMILES	CC50 at 24 h ([1]; Cell Number TC50) [µM]	CC50 at 24 h (MTT reduction; rat) [µM]	CC50 at 24 h [2] [µM]	CC50 at 24 h ([3]; Total GSH TC50) [µM]	Membrane Lipid Peroxidation (rat cardiomyocytes; rat, 24 h)	Membrane Lipid Peroxidation (H4IIE cells; rat, 24 h)	solubility [4, 7] [µM]	% Control (Compound + CSA) (P-glycoprotein (PgP)) [%]	% Control (Compound) (P-glycoprotein (PgP)) [%]	% Difference (P-glycoprotein (PgP)) [%]	CC50 at 24 h ([5]; MemTox TC50) [µM]	other results
		COc1cccc2c1C(=O)c1c(O)c3c(c(O)c1C2=O)C[C@@](O)(C(=O)CO)C[C@@H]3O[C@H]1C[C@H](N)[C@H](O)[C@H](C)O1 [ADRIAMYCIN, Adriamycin]	18	1	1	28	0	0	100 (≈ 54.4 µg/mL)	0.0	8.0	76.9		CC50 at 1 h (MTT reduction; rat): > 300 µM; CC50 at 3 h (MTT reduction; rat): 41 µM; CC50 at 6 h (MTT reduction; rat): 18 µM; CC50 at 1 h [2]: > 300 µM; CC50 at 3 h [2]: 61 µM; CC50 at 6 h [2]: 23 µM; Membrane Lipid Peroxidation (rat cardiomyocytes; rat, 1 h): 0; Membrane Lipid Peroxidation (rat cardiomyocytes; rat, 3 h): 0; Membrane Lipid Peroxidation (rat cardiomyocytes; rat, 6 h): 0; solubility ([4]; 37 °C, plasma or biological fluid, kinetic from dmso stock, dosing medium with 20% serum, 37° C., CM 1 HR, read-out: Highest Soluble Concentration Tested): 100 µM (≈ 54.4 µg/mL); solubility ([4]; 37 °C, plasma or biological fluid, kinetic from dmso stock, dosing medium with 20% serum, 37° C., CM 3 HR, read-out: Highest Soluble Concentration Tested): 100 µM (≈ 54.4 µg/mL); solubility ([4]; 37 °C, plasma or biological fluid, kinetic from dmso stock, dosing medium with 20% serum, 37° C., CM 6 HR, read-out: Highest Soluble Concentration Tested): 100 µM (≈ 54.4 µg/mL); solubility [4, 6]: 100 µM (≈ 54.4 µg/mL); solubility ([4]; dosing medium with 20% serum, 37° C., H4IIE 24 HR, listed as DOXORUBICIN, read-out: Highest Soluble Concentration Tested): 300 µM (≈ 163 µg/mL); % Control (Compound + CSA) (P-glycoprotein (PgP); listed as DOXORUBICIN): 13.7%; % Control (Compound) (P-glycoprotein (PgP); listed as DOXORUBICIN): 59.3%
		Cc1cccc(C)c1OCC(=O)N[C@@H](Cc1ccccc1)[C@@H](O)C[C@H](Cc1ccccc1)NC(=O)[C@H](C(C)C)N1CCCNC1=O [LOPINAVIR, lopinavir]	> 300	72	69	99	0	0	50 (≈ 31.4 µg/mL)	82.1	98.0	16.2	> 300	solubility [4, 6]: 50 µM (≈ 31.4 µg/mL)
		CC[C@@]1(O)C(=O)OCc2c1cc1n(c2=O)Cc2cc3ccccc3nc2-1 [CAMPTOTHECIN, Camptothecin]								26.0	23.6			CC50 at 24 h [1, 8]: 4 µM; CC50 at 24 h [5, 9]: > 300 µM; CC50 at 24 h (MTT reduction; [10]): > 300 µM; CC50 at 24 h [2, 11]: > 300 µM; CC50 at 24 h [3, 12]: 3 µM; Membrane Lipid Peroxidation (rat cardiomyocytes; CM, 24 HR): 0; Membrane Lipid Peroxidation (H4IIE cells; H4IIE, 24 HR): 1 (1 = Modest increase with maximum values ≦15 pg/mL); solubility ([4]; culture medium with 20% serum, 37 °C, plasma or biological fluid, kinetic from dmso stock, culture media containing 20% serum, NRK 6 HR, read-out: Highest Soluble Concentration): 50 µM (≈ 17.4 µg/mL); solubility ([4]; dosing (complete culture) medium with 20% serum, plasma or biological fluid, kinetic from dmso stock, dosing medium with 20% serum, 37° C., CM 24 HR, read-out: Highest Soluble Concentration Tested): 10 µM (≈ 3.48 µg/mL); solubility ([4]; dosing medium (complete culture medium with serum), plasma or biological fluid, kinetic from dmso stock, dosing medium, 37° C., SK-MEL28 24 HR, read-out: Highest Soluble Concentration): 10 µM (≈ 3.48 µg/mL); solubility ([4]; plasma or biological fluid, kinetic from dmso stock, dosing medium, 37° C., HUVEC 24 HR, read-out: Highest Soluble Concentration): 10 µM (≈ 3.48 µg/mL)
		COc1cccc2c1C(=O)c1c(O)c3c(c(O)c1C2=O)C[C@@](O)(C(=O)CO)C[C@@H]3O[C@H]1C[C@H](N)[C@H](O[C@@H]2CCCCO2)[C@H](C)O1 [PIRARUBICIN, pirarubicin]								33.6	51.9	35.2		CC50 at 24 h [1, 8]: 8 µM; CC50 at 24 h [5, 9]: 50 µM; CC50 at 24 h (MTT reduction; [10]): 7 µM; CC50 at 24 h [2, 11]: 6 µM; CC50 at 24 h [3, 12]: 17 µM; Membrane Lipid Peroxidation (rat cardiomyocytes; CM, 24 HR): 0; Membrane Lipid Peroxidation (H4IIE cells; H4IIE, 24 HR): 0; solubility ([4]; plasma or biological fluid, kinetic from dmso stock, dosing medium with 20% serum, 37° C., CM 24 HR, read-out: Highest Soluble Concentration Tested): 50 µM (≈ 31.4 µg/mL)
300 (≈ 137 µg/mL)	300 (≈ 137 µg/mL)	CC(C)Nc1cccnc1N1CCN(C(=O)c2cc3cc(NS(C)(=O)=O)ccc3[nH]2)CC1 [DELAVIRDINE, delavirdine]	> 300	252	> 300	96	0			62.3	89.8	30.7	> 300	
300 (≈ 94.7 µg/mL)	300 (≈ 94.7 µg/mL)	O=C1Nc2ccc(Cl)cc2[C@@](C#CC2CC2)(C(F)(F)F)O1 [EFAVIRENZ, efavirenz]	169	79	83	170		0		70.1	89.0	21.3	181	
300 (≈ 85.9 µg/mL)	300 (≈ 85.9 µg/mL)	Nc1nc(NC2CC2)c2ncn([C@H]3C=C[C@@H](CO)C3)c2n1 [ABACAVIR, abacavir]	> 300	> 300	> 300	213		0		104.8	97.6		> 300	

SMILES	solubility [4, 13] [µM]	solubility [4, 14] [µM]	CC50 at 24 h ([1]; Cell Number TC50) [µM]	CC50 at 24 h (MTT reduction; rat) [µM]	CC50 at 24 h [2] [µM]	CC50 at 24 h ([3]; Total GSH TC50) [µM]	Membrane Lipid Peroxidation (rat cardiomyocytes; rat, 24 h)	Membrane Lipid Peroxidation (H4IIE cells; rat, 24 h)	solubility [4, 7] [µM]	% Control (Compound + CSA) (P-glycoprotein (PgP)) [%]	% Control (Compound) (P-glycoprotein (PgP)) [%]	% Difference (P-glycoprotein (PgP)) [%]	CC50 at 24 h ([5]; MemTox TC50) [µM]	other results
COc1cccc2c1C(=O)c1c(O)c3c(c(O)c1C2=O)C[C@@](O)(C(=O)CO)C[C@@H]3O[C@H]1C[C@H](N)[C@@H](O)[C@H](C)O1 [EPIRUBICIN, epirubicin]	300 (≈ 163 µg/mL)		31	16	13	52	0	0	100 (≈ 54.4 µg/mL)	11.8	59.7	80.3	37	

Source: patent publication US7615361B2, “Toxicity screening methods” (Ceetox, Inc., priority 2006, dated 2009)
